According to patent US9095136B2, “2-IODO imidazole-derivatives” (BAYER INTELLECTUAL PROPERTY GMBH, priority 2011, dated 2015):
Several values for one entry are separate records, joined by “and”; a condition that tells them apart may be missing. Equal entries are not always repeated. Where two headings read alike, the source gives them in different places. Marks after values point to notes of the source that are not given here.

Legend:
[1] = test system: Alternaria brassicae; assay: Example O: preventative in vivo test with Alternaria brassicae (leaf spot on radish); details: 500 ppm, evaluation 5 days after inoculation
Procedure: The active compounds tested are prepared by homogenization in a mixture of acetone/Tween/DMSO and then diluted with water to the desired active compound concentration. Radish plants (cultivar “Pernod Clair”), sown in a 50/50 peat/pozzolana soil substrate and cultivated at 17° C., are treated at the 2-leaf stage by spraying with the active compound, prepared as above. As a control, plants are treated with the mixture of acetone/Tween/DMSO/water without the active compound. After 24 hours, the plants are inoculated by spraying the leaves with an aqueous suspension of Alternaria brassicae spores.

[2] = test system: Puccinia recondita; assay: Example T: preventative in vivo test with Puccinia recondita (brown rust on wheat); details: 500 ppm, evaluation 10 days after inoculation
Procedure: The active compounds tested are prepared by homogenization in a mixture of acetone/Tween/DMSO and then diluted with water to the desired active compound concentration. Wheat plants (cultivar “Scipion”), sown in a 50/50 peat/pozzolana soil substrate and cultivated at 22° C. (12 h)/20° C. (12 h), are treated at the 1-leaf stage (height 10 cm) by spraying with the active compound, prepared as above. As a control, plants are treated with the mixture of acetone/Tween/DMSO/water without the active compound. After 24 hours, the plants are inoculated by spraying the leaves with an aqueous suspension of Puccinia recondita spores.

[3] = test system: Septoria tritici; assay: Example U: preventative in vivo test with Septoria tritici (leaf blotch disease on wheat); details: 500 ppm, evaluation 21 to 28 days after inoculation
Procedure: The active compounds tested are prepared by homogenization in a mixture of acetone/Tween/DMSO and then diluted with water to the desired active compound concentration. Wheat plants (cultivar “Scipion”), sown in a 50/50 peat/pozzolana soil substrate and cultivated at 22° C. (12 h)/20° C. (12 h), are treated at the 1-leaf stage (height 10 cm) by spraying with the active compound, prepared as above. As a control, plants are treated with the mixture of acetone/Tween/DMSO/water without the active compound. After 24 hours, the plants are inoculated by spraying the leaves with an aqueous suspension of cryogenically preserved Septoria tritici spores.

[4] = test system: Sphaerotheca fuliginea; assay: Example V: preventative in vivo test with Sphaerotheca fuliginea (powdery mildew on cucumber); details: 500 ppm, evaluation 12 days after inoculation
Procedure: The active compounds tested are prepared by homogenization in a mixture of acetone/Tween/DMSO and then diluted with water to the desired active compound concentration. Cucumber plants (cultivar “Vert petit de Paris”), sown in a 50/50 peat/pozzolana soil substrate and cultivated at 24° C., are treated at the Z11 cotyledon stage by spraying with the active compound, prepared as above. As a control, plants are treated with the mixture of acetone/Tween/DMSO/water without the active compound. After 24 hours, the plants are inoculated by spraying the leaves with an aqueous suspension of Sphaerotheca fuliginea spores. The inoculated cucumber plants are incubated at about 20° C./25° C. and a relative atmospheric humidity of 60/70%.

[5] = test system: Uromyces appendiculatus; assay: Example W: preventative in vivo test with Uromyces appendiculatus (bean rust); details: 500 ppm, evaluation 10 days after inoculation
Procedure: The active compounds tested are prepared by homogenization in a mixture of acetone/Tween/DMSO and then diluted with water to the desired active compound concentration. Bean plants (cultivar “Saxa”), sown in a 50/50 peat/pozzolana soil substrate and cultivated at 24° C., are treated at the 2-leaf stage (height 9 cm) by spraying with the active compound, prepared as above. As a control, plants are treated with the mixture of acetone/Tween/DMSO/water without the active compound. After 24 hours, the plants are inoculated by spraying the leaves with an aqueous suspension of Uromyces appendiculatus spores.

[6] = log P by HPLC on reversed-phase columns (EEC directive 79/831 Annex V.A8); format: physicochemical
Procedure: The log P values were measured according to EEC directive 79/831 Annex V.A8 by HPLC (High Performance Liquid Chromatography) on reversed-phase columns, using the methods below: […] Calibration was carried out using unbranched alkan-2-ones (having from 3 to 16 carbon atoms) with known log P values (the log P values were determined by the retention times using linear interpolation between two successive alkanones). The lambda maX values were determined in the maxima of the chromatographic signals using the UV spectra from 200 nm to 400 nm.

[7] = test system: Phytophthora infestans; format: in vivo; details: tomato, preventative, 500 ppm, evaluation 5 days after inoculation
[8] = test system: Alternaria solani; assay: Example A: Alternaria test (tomato)/protective; format: in vivo; details: protective, 500 ppm, evaluation 7 days after inoculation
Procedure: Solvent: 49 parts by weight of N,N-dimethylformamide Emulsifier: 1 part by weight of alkylaryl polyglycol ether To produce a suitable preparation of active compound, 1 part by weight of active compound is mixed with the stated amounts of solvent and emulsifier, and the concentrate is diluted with water to the desired concentration. […] The plants then remain at 96% rel. atmospheric humidity and a temperature of 20° C.

[9] = test system: Sphaerotheca fuliginea; assay: Example B: Sphaerotheca test (cucumber)/protective; format: in vivo; details: protective, 500 ppm, evaluation 7 days after inoculation
Procedure: Solvent: 49 parts by weight of N,N-dimethylformamide Emulsifier: 1 part by weight of alkylaryl polyglycol ether To produce a suitable preparation of active compound, 1 part by weight of active compound is mixed with the stated amounts of solvent and emulsifier, and the concentrate is diluted with water to the desired concentration. To test for protective activity, young cucumber plants are sprayed with the preparation of active compound at the stated application rate. 1 day after the treatment, the plants are inoculated with a spore suspension of Sphaerotheca fuliginea. The plants are then placed in a greenhouse at 70% relative air humidity and a temperature of 23° C.

[10] = test system: Pyricularia oryzae; format: in vivo; details: rice, protective, 500 ppm, evaluation 7 days after inoculation
[11] = test system: Uromyces appendiculatus; assay: Example E: Uromyces test (bean)/protective; format: in vivo; details: protective, 10 ppm, evaluation 10 days after inoculation
Procedure: Solvents: 24.5 parts by weight of acetone • 24.5 parts by weight of dimethylacetamide Emulsifier: 1 part by weight of alkylaryl polyglycol ether To produce a suitable preparation of active compound, 1 part by weight of active compound is mixed with the stated amounts of solvent and emulsifier, and the concentrate is diluted with water to the desired concentration. To test for protective activity, young plants are sprayed with the preparation of active compound at the stated application rate. […] The plants are then placed in a greenhouse at about 21° C. and a relative atmospheric humidity of about 90%.

[12] = test system: Blumeria graminis f.sp. hordei; assay: Example G: Blumeria graminis test (barley)/protective; format: in vivo; details: protective, 500 ppm, evaluation 7 days after inoculation
Procedure: (§1) Solvent: 49 parts by weight of N,N-dimethylacetamide Emulsifier: 1 part by weight of alkylaryl polyglycol ether To produce a suitable preparation of active compound, 1 part by weight of active compound is mixed with the stated amounts of solvent and emulsifier, and the concentrate is diluted with water to the desired concentration. To test for protective activity, young plants are sprayed with the preparation of active compound at the stated application rate. After the spray coating has dried on, the plants are dusted with spores of Blumeria graminis f.sp. hordei.

[13] = test system: Leptosphaeria nodorum; assay: Example H: Leptosphaeria nodorum test (wheat)/protective; format: in vivo; details: protective, 500 ppm, evaluation 8 days after inoculation
Procedure: as §1, with “sprayed” for “dusted”, “a spore suspension” for “spores”, “Leptosphaeria nodorum.” for “Blumeria graminis f.sp. hordei.”

[14] = test system: Septoria tritici; assay: Example I: Septoria tritici test (wheat)/protective; format: in vivo; details: protective, 500 ppm, evaluation 21 days after inoculation
Procedure: as §1, with “sprayed” for “dusted”, “a spore suspension” for “spores”, “Septoria tritici.” for “Blumeria graminis f.sp. hordei.”

[15] = test system: Pyrenophora teres; assay: Example K: Pyrenophora teres test (barley)/protective; format: in vivo; details: protective, 500 ppm, evaluation 8 days after inoculation
Procedure: as §1, with “sprayed” for “dusted”, “a spore suspension” for “spores”, “Pyrenophora teres.” for “Blumeria graminis f.sp. hordei.”

[16] = test system: Puccinia triticina; assay: Example L: Puccinia triticina test (wheat)/protective; format: in vivo; details: protective, 500 ppm, evaluation 8 days after inoculation
Procedure: as §1, with “sprayed” for “dusted”, “spores with a spore suspension” for “spores”, “Puccinia triticina.” for “Blumeria graminis f.sp. hordei.”

[17] = test system: Fusarium nivale (var. majus); assay: Example M: Fusarium nivale (var. majus) test (wheat)/protective; format: in vivo; details: protective, 500 ppm, evaluation 5 days after inoculation
Procedure: as §1, with “sprayed” for “dusted”, “a spore suspension” for “spores”, “Fusarium nivale (var. majus).” for “Blumeria graminis f.sp. hordei.”

[18] = test system: Fusarium graminearum; format: in vivo; details: barley (heading), protective, 500 ppm, evaluation 5 days after inoculation

SMILES: Fc1ccc(C2(Cn3ccnc3I)OC2c2ccccc2Cl)cc1 (mixture of isomers) [Example 6]
- Efficacy % [1]: 75%

SMILES: Fc1cc(Cl)ccc1C1(Cn2ccnc2I)OC1c1ccccc1Cl (mixture of isomers) [Example 9]
- Efficacy % [2]: 86%
- Efficacy % [3]: 100%
- Efficacy % [4]: 100%
- Efficacy % [5]: 93%

SMILES: Fc1ccc(C2(Cn3ccnc3I)OC2c2ccccc2Cl)c(Cl)c1 (mixture of isomers) [Example 15]
- Efficacy % [2]: 100%
- Efficacy % [3]: 86%
- Efficacy % [4]: 98%
- Efficacy % [5]: 100%

SMILES: Fc1ccc([C@]2(Cn3ccnc3I)O[C@@H]2c2ccccc2Cl)c(F)c1 (relative stereo) [Example 13, rel-1-{[(2R,3R)-3-(2-chlorophenyl)-2-(2,4-difluorophenyl)oxiran-2-yl]methyl}-2-iodo-1H-imidazole]
- chromatographic logP ([6]; pH 2.7, log P(HCOOH)): 2.86
- chromatographic logP ([6]; pH 2.7, logP): 2.86
- Efficacy % [7]: 98%

SMILES: CC(=Cc1ccccc1Cl)c1ccc(F)cc1F [1-[1-(2-chlorophenyl)prop-1-en-2-yl]-2,4-difluorobenzene]
- chromatographic logP ([6]; pH 2.7, HPLC/MS, major diastereoisomer of the mixture, read-out: log P(HCOOH)): 5.05
- chromatographic logP ([6]; pH 2.7, HPLC/MS, minor diastereoisomer of the mixture, read-out: log P(HCOOH)): 5.34

SMILES: Fc1ccc(C(=Cc2ccccc2Cl)CBr)c(F)c1 [1-[3-bromo-1-(2-chlorophenyl)prop-1-en-2-yl]-2,4-difluorobenzene]
- log P(HCOOH) ([6]; pH 2.7): 5.25
- chromatographic logP ([6]; pH 2.7, log P(HCOOH)): 4.8

SMILES: Fc1ccc(C2(CBr)OC2c2ccccc2Cl)c(F)c1 (centres unmarked) [2-(bromomethyl)-3-(2-chlorophenyl)-2-(2,4-difluorophenyl)oxirane]
- log P(HCOOH) ([6]; pH 2.7): 5.00
- chromatographic logP ([6]; pH 2.7, log P(HCOOH)): 4.61

SMILES: OC(Cc1ccccc1F)(Cn1ccnc1I)C1(Cl)CC1 (centres unmarked) [Example 2]
- logP ([6]; pH 2.7): 2.05
- logP ([6]; pH 7.8): 3.02
- Eff. % [8]: 95%
- Eff. % [9]: 92%
- Eff. % [10]: 80%
- Eff. % [11]: 91% and 100%
- Eff. % [12]: 100%
- Eff. % [13]: 93%
- Eff. % [14]: 86%
- Eff. % [15]: 100%
- Eff. % [16]: 100%
- Eff. % [17]: 100%
- Eff. % [18]: 92% and 100%

SMILES: OC(Cn1ccnc1I)(c1ccc(Cl)cc1)C1(Oc2ccc(F)cc2)CC1 (centres unmarked) [Example 3]
- logP ([6]; pH 2.7): 2.55
- logP ([6]; pH 7.8): 3.55

SMILES: OC(Cn1ccnc1I)(c1ccc(F)cc1F)C1(Oc2ccc(F)cc2)CC1 (centres unmarked) [Example 5]
- Eff. % [9]: 88%
- Eff. % [10]: 95%

SMILES: Fc1ccc(C2(Cn3ccnc3I)OC2c2ccccc2Cl)cc1 (centres unmarked) [Example 7]
- logP ([6]; pH 2.7): 2.73^[a]

SMILES: Fc1cc(Cl)ccc1C1(Cn2ccnc2I)OC1c1ccccc1Cl (centres unmarked) [Example 10]
- logP ([6]; pH 2.7): 3.23^[a]
- Efficacy % [3]: 96%
- Efficacy % [4]: 98%

SMILES: Fc1ccc(C2(Cn3ccnc3I)OC2c2ccccc2Cl)c(F)c1 (centres unmarked) [Example 12, 1-{[3-(2-chlorophenyl)-2-(2,4-difluorophenyl)oxiran-2-yl]methyl}-2-iodo-1H-imidazole]
- log P(HCOOH) ([6]; pH 2.7): 3.31
- chromatographic logP ([6]; pH 2.7, log P(HCOOH)): 2.92
- chromatographic logP ([6]; pH 2.7, logP): 2.92
- Eff. % [14]: 71%
- Efficacy % [7]: 88%
- Efficacy % [2]: 93%
- Efficacy % [3]: 100%
- Efficacy % [4]: 100%
- Efficacy % [5]: 99%

SMILES: Fc1ccc(C2(Cn3ccnc3I)OC2c2ccccc2Cl)c(Cl)c1 (centres unmarked) [Example 16]
- logP ([6]; pH 2.7): 3.13^[a]

SMILES: Fc1ccc(C2(Cn3ccnc3I)OC2c2ccccc2Cl)c(Cl)c1 (centres unmarked) [Example 17]
- logP ([6]; pH 2.7): 3.68^[a]
- Eff. % [11]: 75%
- Efficacy % [2]: 100%
- Efficacy % [3]: 97%
- Efficacy % [4]: 100%
- Efficacy % [5]: 100%

SMILES: OC(Cc1c(Cl)cccc1I)(Cn1ccnc1I)C1(Cl)CC1 (centres unmarked) [Example 18]
- logP ([6]; pH 2.7): 3.04
- logP ([6]; pH 7.8): 4
- Efficacy % [4]: 100%
- Efficacy % [5]: 100%
